Source: patent US4681940A, “5-[3-[[2-quinolyl]methoxy]phenyl]-1,3-oxazoles” (American Home Products Corporation, priority 1985, dated 1987)
Counter-ions that a name gives are not always drawn. Values belong to the compound of their own block, whether it stands above or below them.

Columns and labels:
[1] = system: LTD4 induced bronchoconstriction; experiment: In vivo inhibition of bronchospasm induced in guinea pigs by exogenously administered leukotrienes C4 and/or D4; design: species or system guinea pig (male Hartley); settings: 10 minutes before induction of bronchospasm
Experimental: The assay of this Example measures the in vivo ability of the compounds of the invention to inhibit the bronchospasm induced in guinea pigs by the exogenously administered leukotrienes C4 and/or D4.
This assay is carried out as follows:
Male Hartley strain guinea pigs (350-600 g) are anesthetized with pentobarbital sodium (50 mg/kg, i.p.). The jugular vein is cannulated for injection of drugs and the carotid artery for monitoring blood pressure. The trachea is cannulated for artificial ventilation by a miniature Starling pump and for indirect measurement of respiratory volume changes as described infra. The animals are then pretreated with succinylcholine (2 mg/kg i.v.) and indomethacin (10 mg/kg i.v. in trizma 8.3 buffer, 9 minutes prior to leukotriene challenge). Submaximal bronchoconstrictor responses are established in control animals by varying the dose-levels of leukotriene. Intravenous dose-levels for LTC4 range from 0.4 to 0.6 μg/kg and for LTD4 the range is from 0.3 to 0.5 μg/kg. The aerosol bronchoprovocation dose for LTC4 is generated from 1.6 μM solution and for LTD4 from a 2.0 μM solution.
Test drugs (dissolved in a solvent such as propylene glycol, polyethylene glycol 400 or saline) are administered either intraduodenally, by aerosol or intragastrically at 2 or 10 minutes before induction of bronchospasm by administration of either LTC4 or LTD4 at the predetermined dose-levels. Aerosols of soluble drugs or leukotrienes are produced in-line for 10 seconds only by actuation of an ultrasonic nebulizer (Monaghan). Aerosolized drug dosage is expressed in terms of solution concentration and by a fixed aerosol exposure time (approximately 10 seconds). Control animals receive solvent (2 ml/kg i.d. or appropriate aerosol) in place of drug.
(§1) Respiratory volume changes are determined by a calibrated piston whose travel is recorded, via a linear transducer, on a Beckman Dynograph recorder. Maximal bronchoconstrictor volume is determined by clamping off the trachea at the end of the experiment. Overflow volumes at 1, 3 and 5 minutes are obtained from the recorded charts.
Area under the volume overflow curve (AUC) is estimated, using the overflow values at 1, 3 and 5 minutes, and expressed as a percentage of the maximal overflow AUC (equation 1): [formula] Drug effects are reported as percent inhibition of % max AUC values obtained from appropriate control animals (equation 2): [formula]
Student's t-test for unpaired data is used to determine statistical significance (p<0.05). IC50 values can also be determined by inverse prediction from linear regression lines through points between 10 and 90% inhibition.

[2] = system: ovalbumin induced bronchospasm; experiment: In vivo inhibition of ovalbumin-induced bronchospasm mediated by endogenous mediators in sensitized guinea pigs; design: species or system guinea pig (male Hartley); settings: 50 mg/kg intraduodenal, 10 minutes before ovalbumin challenge
Experimental: The assay of this Example measures the in vivo ability of the compounds of the invention to inhibit the bronchospasm induced in guinea pigs by endogenous mediators of the bronchoconstriction.
(§2) The assay is carried out as follows:
Male Hartley strain guinea pigs weighing 250-350 g are sensitized to chicken ovalbumin (OA) (10 mg i.p.) on days 1 and 3 and used starting on day 26. The animals are anesthetized with pentobarbital sodium (50 mg/kg, i.p.), bilateral vagotomy is performed, and the jugular vein is cannulated for injection of drugs and the carotid artery for monitoring blood pressure. The trachea is cannulated for artificial ventilation by miniature Starling pump and for indirect measurement of respiratory volume changes as described, infra. Succinylcholine (2 mg/kg, i.v.) is administered to arrest spontaneous respiration. […]
as §1, with “volumes at minutes 1, 3” for “volumes at 1, 3”, “and 5 are obtained” for “and 5 minutes are obtained”
Area under the volume overflow curve (AUC) is estimated, using the overflow values at 1, 3 and 5 minutes, and expressed as a percentage of the maximal overflow AUC (equation 1): [formula] […]

[3] = system: synthesis of 5-HETE by rat glycogen elicited polymorphonuclear leukocytes; experiment: Inhibition of 5-HETE synthesis by rat glycogen-elicited polymorphonuclear leukocytes; format: cell-based, rat (female Wistar); settings: rat PMN
Experimental: The assay of this Example measures the ability of the compounds of the invention to inhibit the synthesis of 5 -HETE by rat glycogen elicited polymorphonuclear leukocytes.
as §2
Peritoneal PMN are obtained from female Wistar rats (150-250 g) that received an i.p. injection of 6% glycogen (10 ml). After 24 hours, rats are killed by CO2 asphyxiation and peritoneal cells are harvested by peritoneal lavage using Ca^++ and Mg^++ free Hanks' balanced salt solution (HBSS). The peritoneal exudate is centrifuged at 400 g for 10 minutes. After centrifugation, the lavaged fluid is removed and the cell pellet is resuspended in HBSS containing Ca^++ and Mg^++ and 10 mM L-cysteine at a concentration of 2×10^7 cells/ml. To 1 ml portions of cell suspension, test drugs or vehicle are added and incubated at 37° C. for 10 minutes. Following this preincubation, the calcium ionophore (10 μM), A23187, is added together with 0.5 μCi [^14 C] arachidonic acid and further incubated for 10 minutes. The reaction is stopped by the addition of ice cold water (3 ml) and acidifying to pH 3.5. Lipoxygenase products are then extracted twice into diethyl ether. The pooled ether extracts are evaporated to dryness under nitrogen and the residue is redissolved in a small volume of methanol and spotted on aluminum backed pre-coated thin layer chromatographic plates. The samples are then co-chromatographed with authentic reference 5-HETE in the solvent system--hexane:ether:acetic acid (50:50:3). After chromatography, the areas associated with 5-HETE standard are identified by autoradiography, cut out and quantitated by liquid scintillation.
The compounds of this invention are tested in this assay at a level of 50 μm, unless otherwise noted. The results are summarized in Table 1, where those compounds having an inhibition of >50% are designated by a "+". Some results are expressed as an IC50 value.

Structure (SMILES): CN1CC(c2cccc(OCc3ccc4ccccc4n3)c2)OC1=O (stereo not drawn) [1 (as HCL salt), 5-[3-[(2-Quinolinyl)methoxy]phenyl]-3-methyl-2-oxazolidone]
- % Inhibition ([1]; 50 mg/kg, intraduodenally): 65%
- % Inhibition ([1]; 50 mg/kg, intragastrically): 46%

Structure (SMILES): CN1CC(c2cccc(OCc3ccc4ccccc4n3)c2)OC1=O (stereo not drawn) [1 (as free base), 5-[3-[(2-Quinolinyl)methoxy]phenyl]-3-methyl-2-oxazolidone]
- % Inhibition of Max AUC [2]: 69%

Structure (SMILES): CN1C[C@@H](c2cccc(OCc3ccc4ccccc4n3)c2)OC1=O [Example 1 (as free base, R-enantiomer), 5-[3-[(2-Quinolinyl)methoxy]phenyl]-3-methyl-2-oxazolidone]
- % Inhibition ([1]; 50 mg/kg, intraduodenally): 91%
- % Inhibition ([1]; 50 mg/kg, intragastrically): 65%
- ED50 ([1]; Cavia porcellus, 10 min, printed on the intraduodenal line, read-out: IC50 (the source's name)): 8.6 mg/kg

Structure (SMILES): CN1C[C@H](c2cccc(OCc3ccc4ccccc4n3)c2)OC1=O [Example 1 (as free base, S-enantiomer), 5-[3-[(2-Quinolinyl)methoxy]phenyl]-3-methyl-2-oxazolidone]
- % Inhibition ([1]; 50 mg/kg, intraduodenally): 99%

- IC50 ([3]; Leukocyte): 19.6 µM
Structure (SMILES): CN1C[C@@H](c2cccc(OCc3ccc4ccccc4n3)c2)OC1=O [Example 1, 5-[3-[(2-Quinolinyl)methoxy]phenyl]-3-methyl-2-oxazolidone]
- >50% Inhibitory at 50 μm [3]: + (inhibition of >50%)

Structure (SMILES): CN1CC(c2cccc(OCc3ccc4ccccc4n3)c2)OC1=S (stereo not drawn) [Example 2, 5-[3-[(2-Quinolinyl)methoxy]phenyl]-3-methyl-2-thiaoxazolidone]
- >50% Inhibitory at 50 μm [3]: + (inhibition of >50%)

Structure (SMILES): CN1CC(c2cccc(OCc3nc4ccccc4n3C)c2)OC1=O (stereo not drawn) [Example 4, 5-[3-[(1-Methyl-2-benzimidazoyl)]methoxy]phenyl-3-methyl-2-oxazolidone]
- % Inhibition ([1]; 50 mg/kg, intraduodenally): 65%

Structure (SMILES): CCC1=NCC(c2cccc(OCc3ccc4ccccc4n3)c2)O1 (stereo not drawn) [Example 5, 2-Ethyl-4,5-dihydro-5-[3-[(2-quinolinyl)methoxy]phenyl]-1,3-oxazole]
- % Inhibition ([1]; 25 mg/kg, intraduodenally): 77%

Structure (SMILES): c1ccc(C2=NCC(c3cccc(OCc4ccc5ccccc5n4)c3)O2)nc1 (stereo not drawn) [Example 6, 4,5-Dihydro-5-[3-[(2-quinolinyl)methoxy]phenyl]-2-(2-pyridyl)-1,3-oxazole]
- % Inhibition ([1]; 25 mg/kg, intraduodenally): 96%

Structure (SMILES): c1cc(OCc2ccc3ccccc3n2)cc(C2CN=C(c3cccs3)O2)c1 (stereo not drawn) [Example 7, 4,5-Dihydro-5-[3-[(2-quinolinyl)methoxy]phenyl]-2-(2-thienyl)-1,3-oxazole]
- % Inhibition ([1]; 50 mg/kg, intraduodenally): 41%

Structure (SMILES): CCOC(=O)CC1=NCC(c2cccc(OCc3ccc4ccccc4n3)c2)O1 (stereo not drawn) [Example 8, 2-Ethoxycarbonylmethyl-4,5-dihydro-5-[3-[(2-quinolinyl)methoxy]phenyl]-1,3-oxazole]
- % Inhibition ([1]; 25 mg/kg, intraduodenally): 72%
